Results reported in PubChem BioAssay AID256 (DTP/NCI, 2004).
Inconclusive results and toxic doses are left out.

System: CD2F1 mice, L1210 leukemia ip, survival T/C
Assay: NCI In Vivo Anticancer Drug Screen. Data for tumor model L1210 Leukemia (intraperitoneal) in CD2F1 (CDF1) mice
Settings: endpoint: mean survival time, higher = longer survival
Method in brief: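 Compound-dosed mice with transplantable tumor versus matched vehicle controls; endpoint ratio T/C reported.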

[1] = dose: 100.0 mg/kg/injection, schedule: Q01DX009 (ip), vehicle: saline with Tween-80
[2] = dose: 200.0 mg/kg/injection, schedule: Q01DX009 (ip), vehicle: saline with Tween-80
[3] = dose: 50.0 mg/kg/injection, schedule: Q01DX009 (ip), vehicle: saline with Tween-80
[4] = dose: 100.0 mg/kg/injection, schedule: Q04DX003 (ip), vehicle: saline with Tween-80
[5] = dose: 200.0 mg/kg/injection, schedule: Q04DX003 (ip), vehicle: saline with Tween-80
[6] = dose: 400.0 mg/kg/injection, schedule: Q04DX003 (ip), vehicle: saline with Tween-80

CC1CCN(N=Nc2ccccc2-c2nc(N)c3ccccc3n2)CC1
T/C (dose: 100.0 mg/kg/injection, schedule: Q04DX002 (ip), vehicle: Klucel (hydroxypropylcellulose) (HPC)): 98 % of control
T/C (dose: 200.0 mg/kg/injection, schedule: Q04DX002 (ip), vehicle: Klucel (hydroxypropylcellulose) (HPC)): 109 % of control
T/C (dose: 400.0 mg/kg/injection, schedule: Q04DX002 (ip), vehicle: Klucel (hydroxypropylcellulose) (HPC)): 95 % of control

Cc1ccc(N=Nc2c(N)nc(N)[nH]c2=O)cc1C
T/C [1]: 97 % of control
T/C [2]: 97 % of control
T/C (dose: 400.0 mg/kg/injection, schedule: Q01DX009 (ip), vehicle: saline with Tween-80): 99 % of control

O=NC1C(=O)C2CC1CC2C(=O)OC(=O)C1CC2CC1C(=O)C2N=O (stereo unspecified)
T/C (dose: 75.0 mg/kg/injection, schedule: Q01DX001 (ip), vehicle: other): 108 % of control
T/C (dose: 150.0 mg/kg/injection, schedule: Q01DX001 (ip), vehicle: other): 108 % of control

O=C(NC1CCC(NC(=O)N2CC2)CC1)N1CC1 (stereo unspecified)
T/C (dose: 6.75 mg/kg/injection, schedule: Q01DX001 (ip), vehicle: carboxymethylcellulose (CMC)): 164 % of control
T/C (dose: 10.0 mg/kg/injection, schedule: Q01DX001 (ip), vehicle: carboxymethylcellulose (CMC)): 185 % of control
T/C (dose: 15.0 mg/kg/injection, schedule: Q01DX001 (ip), vehicle: carboxymethylcellulose (CMC)): 102 % of control

C/C=C(\C)C(C)(C#N)Nc1ccccc1 (stereo unspecified)
T/C [3]: 103 % of control
T/C [1]: 100 % of control
T/C [4]: 101 % of control
T/C [2]: 102 % of control
T/C [5]: 101 % of control
T/C [6]: 95 % of control

COc1cc(C)cc(N)n1
T/C (dose: 6.25 mg/kg/injection, schedule: Q01DX001 (ip), vehicle: saline with Tween-80): 89 % of control
T/C (dose: 12.5 mg/kg/injection, schedule: Q01DX001 (ip), vehicle: saline with Tween-80): 92 % of control
T/C (dose: 25.0 mg/kg/injection, schedule: Q01DX001 (ip), vehicle: saline with Tween-80): 89 % of control

C=CCC12CCCCC1=CC(=O)CC2 (stereo unspecified)
T/C [4]: 97 % of control
T/C [5]: 100 % of control
T/C [6]: 102 % of control

c1cc2c(c(OCC3=NCCN3)c1)CCCC2
T/C (dose: 25.0 mg/kg/injection, schedule: Q04DX002 (ip), vehicle: saline): 94 % of control
T/C (dose: 50.0 mg/kg/injection, schedule: Q04DX002 (ip), vehicle: saline): 110 % of control

NNC(=O)c1ccc(N)cc1
T/C (dose: 100.0 mg/kg/injection, schedule: Q04DX003 (ip), vehicle: Klucel (hydroxypropylcellulose) (HPC)): 95 % of control

CC1(C)CCCC2(C)C(OCCO)=CC(=O)C=C12 (stereo unspecified)
T/C (dose: 100.0 mg/kg/injection, schedule: Q04DX003 (ip), vehicle: saline sonified): 96 % of control
T/C (dose: 200.0 mg/kg/injection, schedule: Q04DX003 (ip), vehicle: saline sonified): 98 % of control
T/C (dose: 400.0 mg/kg/injection, schedule: Q04DX003 (ip), vehicle: saline sonified): 96 % of control

O=NC1C2CCC(C2)C1Cl (stereo unspecified)
T/C (dose: 5.0 mg/kg/injection, schedule: Q01DX001 (ip), vehicle: saline): 98 % of control
T/C (dose: 10.0 mg/kg/injection, schedule: Q01DX001 (ip), vehicle: saline): 97 % of control
T/C (dose: 20.0 mg/kg/injection, schedule: Q01DX001 (ip), vehicle: saline): 95 % of control

CC1CCC(NC(=O)NCCCl)CC1 (stereo unspecified)
T/C (dose: 100.0 mg/kg/injection, schedule: Q01DX001 (ip), vehicle: saline with Tween-80): 98 % of control
T/C (dose: 200.0 mg/kg/injection, schedule: Q01DX001 (ip), vehicle: saline with Tween-80): 109 % of control
T/C (dose: 400.0 mg/kg/injection, schedule: Q01DX001 (ip), vehicle: saline with Tween-80): 101 % of control

Cn1c(=O)c2c(nc(N3CCOCC3)n2CCCNCC(O)c2cc(O)cc(O)c2)n(C)c1=O (stereo unspecified)
T/C (dose: 12.5 mg/kg/injection, schedule: Q01DX005 (ip), vehicle: water): 100 % of control
T/C (dose: 25.0 mg/kg/injection, schedule: Q01DX005 (ip), vehicle: water): 96 % of control
T/C (dose: 50.0 mg/kg/injection, schedule: Q01DX005 (ip), vehicle: water): 94 % of control
T/C (dose: 100.0 mg/kg/injection, schedule: Q01DX005 (ip), vehicle: water): 97 % of control
T/C (dose: 200.0 mg/kg/injection, schedule: Q01DX005 (ip), vehicle: water): 92 % of control

CC(=O)NNC(=O)c1ccc2ccccc2n1
T/C [3]: 96 % of control
T/C (dose: 50.0 mg/kg/injection, schedule: Q04DX003 (ip), vehicle: saline with Tween-80): 107 % of control
T/C [1]: 104 % of control
T/C [4]: 103 % of control
T/C [2]: 111 % of control
T/C [5]: 101 % of control
